Results on seven molecules are retold here after patent US20250326771A1, “PIPERAZINE DERIVATIVES USEFUL IN HIV THERAPY” (VIIV HEALTHCARE COMPANY, priority 2022, published 2025).

Assay [1] deals with Jurkat HIV-luciferase clones. Put plainly: Jurkat latency reversal assay. The assay is classed as cell-based. The note with it: Homo sapiens, 48 h; Jurkat latency reversal assay potency; read-out: Jurkat pEC50 (converted). A digest of the protocol:
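Three pooled Jurkat reporter clones, each with one or two integrated HIV-luciferase proviruses, 5,000 cells/well; duplicate 14-point titrations starting at 10 μM; 48 h, 37° C, then Steady-Glo luminescence; four-parameter logistic analysis yields EC50 and percent maximal activation against DMSO vehicle.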

In a further assay the target is cIAP1-BIR3 (Homo sapiens (Human), UniProt Q13490). In words: BIR binding assay (FRET competition), cIAP1 BIR3. As to conditions: for cIAP1 BIR3 vs BIR2 separation window: fold separation (FS) for cIAP1. A digest of the protocol: (§1)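 Each domain is run separately at its own level: 50 nM cIAP1-BIR3, 100 nM XIAP-BIR3, 325 nM for cIAP1-BIR2 or cIAP2-BIR2. Probe is a 200 nM fluorescent SMAC peptide, and the value is IC50 from FRET competition.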
cIAP1-BIR3, sequence (Q13490 253-363): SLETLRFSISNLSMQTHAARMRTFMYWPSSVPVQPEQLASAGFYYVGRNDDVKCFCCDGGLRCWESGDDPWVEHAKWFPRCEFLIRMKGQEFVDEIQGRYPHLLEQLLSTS

A further assay addresses cIAP1-BIR2 (Homo sapiens (Human), UniProt Q13490). Put plainly: BIR binding assay (FRET competition), cIAP1 BIR2. The gist of the method: as §1
The target of a further assay is cIAP2-BIR3 (Homo sapiens (Human), UniProt Q13489). In words: BIR binding assay (FRET competition), cIAP2 BIR3. The note with it: for cIAP2 BIR3 vs BIR2 separation window: fold separation (FS) for cIAP2.
cIAP2-BIR3, sequence (Q13489 238-349): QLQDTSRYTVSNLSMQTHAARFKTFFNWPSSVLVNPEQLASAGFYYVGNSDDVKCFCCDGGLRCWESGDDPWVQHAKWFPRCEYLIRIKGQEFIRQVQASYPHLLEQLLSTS
For another assay, the target named is cIAP2-BIR2 (Homo sapiens (Human), UniProt Q13489). In words: BIR binding assay (FRET competition), cIAP2 BIR2. The gist of the method:
as §1

For the next assay, the target named is XIAP-BIR3 (Homo sapiens (Human), UniProt P98170). Put plainly: BIR binding assay (FRET competition), XIAP BIR3. The note with it: for XIAP BIR3 vs BIR2 separation window: fold separation (FS) for XIAP. The gist of the method: as §1
XIAP-BIR3, sequence (P98170 241-356): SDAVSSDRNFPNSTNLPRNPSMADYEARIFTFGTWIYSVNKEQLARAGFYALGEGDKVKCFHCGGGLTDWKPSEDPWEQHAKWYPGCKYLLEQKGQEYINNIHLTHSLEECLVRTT
Another assay has as its target XIAP-BIR2 (Homo sapiens (Human), UniProt P98170). In words: BIR binding assay (FRET competition), XIAP BIR2. The note with it: for IC50: read-out: XIAP BIR2 (pIC50) (converted). The gist of the method:
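Compounds in a 15-point, 3-fold series competed with an AlexaFluor647 SMAC peptide (AVPIAQKSE, 200 nM) for 200 nM His-tagged XIAP-BIR2 over 60 min in pH 7.4 HEPES/CHAPS/DTT buffer. Eu-W1024 (2 nM) was then added for 30 min. IC50 and pIC50 were derived from the 615 nm/665 nm emission ratio by variable-slope fit.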

Where two headings read alike, the source gives them in different places.

cIAP2-BIR2, sequence (Q13489 158-242): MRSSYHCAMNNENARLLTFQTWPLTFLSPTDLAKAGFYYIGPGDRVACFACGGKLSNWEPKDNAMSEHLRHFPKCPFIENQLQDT
XIAP-BIR2, sequence (P98170 124-240): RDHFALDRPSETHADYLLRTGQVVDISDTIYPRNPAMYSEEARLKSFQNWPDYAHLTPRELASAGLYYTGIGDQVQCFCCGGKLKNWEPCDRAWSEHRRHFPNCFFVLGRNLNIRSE
cIAP1-BIR2, sequence (Q13490 173-257): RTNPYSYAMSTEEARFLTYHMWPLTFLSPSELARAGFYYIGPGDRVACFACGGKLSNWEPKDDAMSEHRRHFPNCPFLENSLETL

With `C[C@@H]1CN(CC(=O)N2CC(C)(C)c3c2cc(Cc2ccc(F)cc2)c(=O)n3C)[C@@H](CN2CCO[C@H](COc3ccc(Cc4ccc(OC[C@@H]5CN(C[C@H]6CN[C@H](C)CN6CC(=O)N6CC(C)(C)c7c6cc(Cc6ccc(F)cc6)c(=O)n7C)CCO5)cc4)cc3)C2)CN1` [Example 115, 1,1′-(2,2′-((3R,3′R,6R,6′R)-(((2S,2'S)-(((methylenebis(4,1-phenylene))bis(oxy))bis(methylene))bis(morpholine-2,4-diyl))bis(methylene))bis(3-methylpiperazine-6,1-diyl))bis(acetyl))bis(6-(4-fluorobenzyl)-3,3,4-trimethyl-1,2,3,4-tetrahydro-5H-pyrrolo[3,2-b]pyridin-5-one)], in assay [1], the EC50 is 63.1 to 316 nM. For the same molecule, the IC50 on cIAP1-BIR3 was in the range of 31.6 to 501 nM; at cIAP1-BIR2 it was 3160 to 10000 nM; on cIAP2-BIR3 it was 31.6 to 501 nM; on cIAP2-BIR2, 10000 to 51300 nM; on XIAP-BIR3, 31.6 to 501 nM. In addition, the “cIAP1 BIR3 vs BIR2 separation window” value on cIAP1-BIR3 was “+++ (10,000>FS>1,000)”. For the same molecule, the “cIAP2 BIR3 vs BIR2 separation window” value on cIAP2-BIR3 is “+++ (10,000>FS>1,000)”. The “XIAP BIR3 vs BIR2 separation window” value at XIAP-BIR3 was “++ (1,000>FS>100)”. The “XIAP BIR2 (pIC50)” value on XIAP-BIR2 (FRET competition binding) is “++ (5.00<pIC50<=5.50)”.

As to `C[C@@H]1CN(CC(=O)N2CC(C)(C)c3[nH]c(=O)c(Cc4ccc(F)cc4)cc32)[C@@H](CN2CCO[C@H](C(=O)NCCCN(C)C(=O)[C@@H]3CN(C[C@H]4CN[C@H](C)CN4CC(=O)N4CC(C)(C)c5[nH]c(=O)c(Cc6ccc(F)cc6)cc54)CCO3)C2)CN1` [Compound 135, (S)-4-(((2R,5R)-1-(2-(6-(4-fluorobenzyl)-3,3-dimethyl-5-oxo-2,3,4,5-tetrahydro-1H-pyrrolo[3,2-b]pyridin-1-yl)-2-oxoethyl)-5-methylpiperazin-2-yl)methyl)-N-(3-((S)-4-(((2R,5R)-1-(2-(6-(4-fluorobenzyl)-3,3-dimethyl-5-oxo-2,3,4,5-tetrahydro-1H-pyrrolo[3,2-b]pyridin-1-yl)-2-oxoethyl)-5-methylpiperazin-2-yl)methyl)morpholine-2-carboxamido)propyl)-N-methylmorpholine-2-carboxamide], the EC50 in assay [1] is 63.1 to 316 nM. Besides, the IC50 at cIAP1-BIR3 is 15.8 to 31.6 nM; at cIAP1-BIR2, 3160 to 10000 nM; at cIAP2-BIR3, 7.94 to 15.8 nM; on cIAP2-BIR2, 3160 to 10000 nM; on XIAP-BIR3 it was 15.8 to 31.6 nM; at XIAP-BIR2 (FRET competition), 10000 to 51300 nM. The “cIAP1 BIR3 vs BIR2 separation window” value at cIAP1-BIR3 is given as “+++ (10,000>FS>1,000)”. The “cIAP2 BIR3 vs BIR2 separation window” value on cIAP2-BIR3 is listed as “+++ (10,000>FS>1,000)”. Also, the “XIAP BIR3 vs BIR2 separation window” value at XIAP-BIR3 is recorded as “++++ (FS>10,000)”.

Turning to `C[C@@H]1CN(CC(=O)N2CC(C)(C)c3[nH]c(=O)c(Cc4ccc(F)cc4)cc32)[C@@H](CN2CCO[C@H](COc3ccc(C#N)c(OC[C@@H]4CN(C[C@H]5CN[C@H](C)CN5CC(=O)N5CC(C)(C)c6[nH]c(=O)c(Cc7ccc(F)cc7)cc65)CCO4)c3)C2)CN1` [Example 77, 2,4-bis(((S)-4-(((2R,5R)-1-(2-(6-(4-fluorobenzyl)-3,3-dimethyl-5-oxo-2,3,4,5-tetrahydro-1H-pyrrolo[3,2-b]pyridin-1-yl)-2-oxoethyl)-5-methylpiperazin-2-yl)methyl)morpholin-2-yl)methoxy)benzonitrile], in assay [1], the EC50 was 12.6 to 63.1 nM. In addition, the IC50 was 1.38 to 7.94 nM on cIAP1-BIR3; 1000 to 3160 nM on cIAP1-BIR2; 1.38 to 7.94 nM at cIAP2-BIR3; 1000 to 3160 nM at cIAP2-BIR2; 15.8 to 31.6 nM on XIAP-BIR3; 10000 to 51300 nM on XIAP-BIR2 (FRET competition binding). For the same molecule, the “cIAP1 BIR3 vs BIR2 separation window” value at cIAP1-BIR3 is listed as “+++ (10,000>FS>1,000)”. The “cIAP2 BIR3 vs BIR2 separation window” value at cIAP2-BIR3 is given as “+++ (10,000>FS>1,000)”. At XIAP-BIR3, the “XIAP BIR3 vs BIR2 separation window” value is recorded as “++++ (FS>10,000)”.

Take `C[C@@H]1CN(CC(=O)N2CC(C)(C)c3[nH]c(=O)c(Cc4ccc(F)cc4)cc32)[C@@H](CN2CCN(C(=O)COCCOCC(=O)N3CCN(C[C@H]4CN[C@H](C)CN4CC(=O)N4CC(C)(C)c5[nH]c(=O)c(Cc6ccc(F)cc6)cc54)[C@H](C)C3)C[C@H]2C)CN1` [Example 5, 1,1′-(2,2′-((3R,3′R,6R,6′R)-(((2R,2′R)-(2,2′-(ethane-1,2-diylbis(oxy))bis(acetyl))bis(2-methylpiperazine-4,1-diyl))bis(methylene))bis(3-methylpiperazine-6,1-diyl))bis(acetyl))bis(6-(4-fluorobenzyl)-3,3-dimethyl-1,2,3,4-tetrahydro-5H-pyrrolo[3,2-b]pyridin-5-one)]: the EC50 in assay [1] is 63.1 to 316 nM. Besides, the IC50 on cIAP1-BIR3 was 31.6 to 501 nM; at cIAP1-BIR2, 3160 to 10000 nM; on cIAP2-BIR3, 15.8 to 31.6 nM; at cIAP2-BIR2 it was 1000 to 3160 nM; on XIAP-BIR3, 31.6 to 501 nM; on XIAP-BIR2 (FRET competition binding) it was 10000 to 51300 nM. In addition, the “cIAP1 BIR3 vs BIR2 separation window” value at cIAP1-BIR3 is reported as “++ (1,000>FS>100)”. Moreover, the “cIAP2 BIR3 vs BIR2 separation window” value on cIAP2-BIR3 is listed as “++ (1,000>FS>100)”. Moreover, the “XIAP BIR3 vs BIR2 separation window” value on XIAP-BIR3 is “++++ (FS>10,000)”.

For `C[C@@H]1CN(CC(=O)N2CC(C)(C)c3[nH]c(=O)c(Cc4ccc(F)cc4)cc32)[C@@H](CN2CCN(CCc3cn(CCCCC(=O)N4CCN(C[C@H]5CN[C@H](C)CN5CC(=O)N5CC(C)(C)c6[nH]c(=O)c(Cc7ccc(F)cc7)cc65)[C@H](C)C4)nn3)C[C@H]2C)CN1` [Compound 158], in assay [1], the EC50 was 63.1 to 316 nM. Besides, the IC50 was 7.94 to 15.8 nM on cIAP1-BIR3; 1000 to 3160 nM at cIAP1-BIR2; 7.94 to 15.8 nM on cIAP2-BIR3; 22.4 to 1000 nM on cIAP2-BIR2; 7.94 to 15.8 nM at XIAP-BIR3; 10000 to 51300 nM at XIAP-BIR2 (FRET competition). Further, the “cIAP1 BIR3 vs BIR2 separation window” value on cIAP1-BIR3 was “++ (1,000>FS>100)”. In addition, the “cIAP2 BIR3 vs BIR2 separation window” value on cIAP2-BIR3 is recorded as “++ (1,000>FS>100)”. Also, on XIAP-BIR3, the “XIAP BIR3 vs BIR2 separation window” value is listed as “++++ (FS>10,000)”.

As to `C[C@@H]1CN(CC(=O)N2CC(C)(C)c3[nH]c(=O)c(Cc4ccc(F)cc4)cc32)[C@@H](CN2CCO[C@H](COCc3c(F)c(F)c(COC[C@@H]4CN(C[C@H]5CN[C@H](C)CN5CC(=O)N5CC(C)(C)c6[nH]c(=O)c(Cc7ccc(F)cc7)cc65)CCO4)c(F)c3F)C2)CN1` [Example 85, 1,1′-(2,2′-((3R,3′R,6R,6′R)-(((2S,2'S)-((((perfluoro-1,4-phenylene)bis(methylene))bis(oxy))bis(methylene))bis(morpholine-2,4-diyl))bis(methylene))bis(3-methylpiperazine-6,1-diyl))bis(acetyl))bis(6-(4-fluorobenzyl)-3,3-dimethyl-1,2,3,4-tetrahydro-5H-pyrrolo[3,2-b]pyridin-5-one)], the EC50 in assay [1] was 0.49 to 12.6 nM. Also, the IC50 on cIAP1-BIR3 was 7.94 to 15.8 nM; at cIAP1-BIR2, 3160 to 10000 nM; at cIAP2-BIR3 it was 15.8 to 31.6 nM; at cIAP2-BIR2, 3160 to 10000 nM; at XIAP-BIR3, 31.6 to 501 nM; on XIAP-BIR2 (FRET competition binding), 10000 to 51300 nM. In addition, on cIAP1-BIR3, the “cIAP1 BIR3 vs BIR2 separation window” value is listed as “+++ (10,000>FS>1,000)”. Besides, the “cIAP2 BIR3 vs BIR2 separation window” value at cIAP2-BIR3 is recorded as “+++ (10,000>FS>1,000)”. In addition, on XIAP-BIR3, the “XIAP BIR3 vs BIR2 separation window” value is listed as “++++ (FS>10,000)”.

With `C[C@@H]1CN(CC(=O)N2CC(C)(C)c3[nH]c(=O)c(Cc4ccc(F)cc4)cc32)[C@@H](CN2CCC(CCNC(=O)c3ccc(C(=O)NCCC4CCN(C[C@H]5CN[C@H](C)CN5CC(=O)N5CC(C)(C)c6[nH]c(=O)c(Cc7ccc(F)cc7)cc65)CC4)cc3)CC2)CN1` [Example 103, N^1,N^4-bis(2-(1-(((2R,5R)-1-(2-(6-(4-fluorobenzyl)-3,3-dimethyl-5-oxo-2,3,4,5-tetrahydro-1H-pyrrolo[3,2-b]pyridin-1-yl)-2-oxoethyl)-5-methylpiperazin-2-yl)methyl)piperidin-4-yl)ethyl)terephthalamide], in assay [1], the EC50 was 63.1 to 316 nM. The IC50 at cIAP1-BIR3 is 7.94 to 15.8 nM; on cIAP1-BIR2, 3160 to 10000 nM; on cIAP2-BIR3 it was 7.94 to 15.8 nM; on cIAP2-BIR2 it was 3160 to 10000 nM; on XIAP-BIR3, 7.94 to 15.8 nM; at XIAP-BIR2 (FRET competition binding), 10000 to 51300 nM. In addition, the “cIAP1 BIR3 vs BIR2 separation window” value on cIAP1-BIR3 was “+++ (10,000>FS>1,000)”. At cIAP2-BIR3, the “cIAP2 BIR3 vs BIR2 separation window” value was “+++ (10,000>FS>1,000)”. In addition, the “XIAP BIR3 vs BIR2 separation window” value on XIAP-BIR3 is “++++ (FS>10,000)”.
